Experimental data reported in patent US12539289B2, “Phorbol ester compositions and methods of use for treating or reducing the duration of cytopenia” (BIOSUCCESS BIOTECH CO., LTD., priority 2014, dated 2026).

Key:
Drug Induced Cytopenia = test: Drug induced cytopenia treated by TPA: blood cell counts after DNR + Ara-C; type: in vivo, mice; settings: for PLT / RBC / WBC: n = 10
Method: Ninety (90) adult mice were randomly assigned to 9 groups (10 mice per group). No drug was administered in Control group. Model group was given DNR (6 mg/kg)+Ara-C (150 mg/kg) on Day 0. The rest of the 7 groups were given DNR (6 mg/kg)+Ara-C (150 mg/kg) on Day 0, and each group on Day 7, Day 8, and Day 9 was administered with one of the following drugs: G-CSF (10 μg/kg), EPO (500 IU/kg), TPA (12.5 μg/kg), TPA (25 μg/kg), TPA (50 μg/kg), TPA (12.5 μg/kg)+GCSF (10 μg/kg), or TPA (12.5 μg/kg)+EPO (500 IU/kg).

[1] = test system: neutropenia and thrombocytopenia; test: Phase 2a study of phorbol ester in AML patients who receive induction chemotherapy; type: in vivo, human; settings: AML patients after 3+7 induction; TPA 0.125 mg/m^2 IV with G-CSF 400 μg support; standard deviation of 5 days; usual 20±3 days
Method: This is a single-arm, open label study. Ten (10) patients receive standard induction chemotherapy with idarubicin (12 mg/m2) or daunorubicin (60 mg/m2) on days 1, 2, 3 and Ara-C continuous (100-200 mg/m2/day) infusion on days 1-7. On Day 8 or 24 hours after completion of all scheduled Ara-C infusion, TPA is started at 0.125 mg/m^2 IV every two days, in addition to G-CSF (400 μg subcutaneously daily) support until absolute neutrophil count (ANC) above 1000/μL for two consecutive days.”
This study is designed to examine the efficacy of TPA as a supportive care agent to enhance bone marrow recovery in AML patients after induction chemotherapy. Study Objectives: • 1. Evaluate the safety and tolerability of TPA in AML patients after induction chemotherapy • 2. Evaluate preliminary efficacy in shortening of the duration of neutropenia and thrombocytopenia in AML patients after induction chemotherapy • 3. […] AML should be classified by FAB classification, and all subtypes are allowed and recorded during enrollment, except patients with M3 or acute promyelocytic leukemia. • 3. […]
Evaluation of neutropenia and thrombocytopenia after induction chemotherapy is done by daily hematological tests, including complete blood count and differential count. […] The duration of neutropenia and thrombocytopenia is assessed separately and the ANC and platelet counts should be plotted in a diagram for each patient. […]

[2] = test system: post-chemotherapy neutropenia; settings: cited from earlier work
[3] = 8 days after DNR + Ara-c, 1 day after 1st dose, G-CSF 10, EPO 500, TPA 12.5, TPA + GCSF 12.5 + 10, TPA + EPO 12.5 + 500 (μg·kg^−1)
[4] = 8 days after DNR + Ara-c, 1 day after 1st dose, TPA 25 μg·kg^−1
[5] = 8 days after DNR + Ara-c, 1 day after 1st dose, TPA 50 μg·kg^−1
[6] = 9 days after DNR + Ara-c, 1 day after 2nd dose, G-CSF 10, EPO 500, TPA 12.5, TPA + GCSF 12.5 + 10, TPA + EPO 12.5 + 500 (μg·kg^−1)
[7] = 9 days after DNR + Ara-c, 1 day after 2nd dose, TPA 25 μg·kg^−1
[8] = 9 days after DNR + Ara-c, 1 day after 2nd dose, TPA 50 μg·kg^−1
[9] = 10 days after DNR + Ara-c, 1 day after 3rd dose, G-CSF 10, EPO 500, TPA 12.5, TPA + GCSF 12.5 + 10, TPA + EPO 12.5 + 500 (μg·kg^1)
[10] = 10 days after DNR + Ara-c, 1 day after 3rd dose, TPA 25 μg·kg^1
[11] = 10 days after DNR + Ara-c, 1 day after 3rd dose, TPA 50 μg·kg^1

CCCCCCCCCCCCCC(=O)O[C@@H]1[C@@H](C)[C@@]2(O)[C@@H](C=C(CO)C[C@]3(O)C(=O)C(C)=C[C@@H]23)[C@@H]2C(C)(C)[C@]12OC(C)=O [TPA, 12-O-tetradecanoylphorbol-13-acetate]
PLT (Drug Induced Cytopenia; [3]): 395 ± 30.41^(1)(1)(2)(2) ×10^9/L
RBC (Drug Induced Cytopenia; [3]): 6.08 ± 0.49^(1)(1)(2)(3)(3)(4) ×10^12/L
WBC (Drug Induced Cytopenia; [3]): 6.4 ± 0.62^(2)(2) ×10^9/L
PLT (Drug Induced Cytopenia; [4]): 391 ± 20.42^(1)(1)(2)(2) ×10^9/L
RBC (Drug Induced Cytopenia; [4]): 7.09 ± 0.23^(1)(1)(2)(2)(3)(3)(5) ×10^12/L
WBC (Drug Induced Cytopenia; [4]): 6.4 ± 0.35^(2)(2) ×10^9/L
PLT (Drug Induced Cytopenia; [5]): 413 ± 9.64^(1)(1)(2)(2) ×10^9/L
RBC (Drug Induced Cytopenia; [5]): 7.10 ± 0.24^(1)(1)(2)(2)(3)(3)(5) ×10^12/L
WBC (Drug Induced Cytopenia; [5]): 6.5 ± 0.75^(2)(2) ×10^9/L
PLT (Drug Induced Cytopenia; [6]): 965 ± 76.23^(1)(1)(2)(2) ×10^9/L
RBC (Drug Induced Cytopenia; [6]): 7.47 ± 0.55^(1)(1)(2)(2)(3)(3) ×10^12/L
WBC (Drug Induced Cytopenia; [6]): 6.84 ± 0.44^(2) ×10^9/L
PLT (Drug Induced Cytopenia; [7]): 951 ± 70.29^(1)(1)(2)(2) ×10^9/L
RBC (Drug Induced Cytopenia; [7]): 7.34 ± 0.87^(1)(1)(2)(2)(3)(3) ×10^12/L
WBC (Drug Induced Cytopenia; [7]): 6.72 ± 0.50^(2) ×10^9/L
PLT (Drug Induced Cytopenia; [8]): 999 ± 45.67^(1)(1)(2)(2) ×10^9/L
RBC (Drug Induced Cytopenia; [8]): 7.30 ± 0.49^(1)(1)(2)(2)(3)(3) ×10^12/L
WBC (Drug Induced Cytopenia; [8]): 6.86 ± 0.39^(2) ×10^9/L
PLT (Drug Induced Cytopenia; [9]): 1447 ± 78.09^(2)(2) ×10^9/L
RBC (Drug Induced Cytopenia; [9]): 7.59 ± 0.67^(1)(1)(2)(2)(3)(3) ×10^12/L
WBC (Drug Induced Cytopenia; [9]): 9.51 ± 0.85^(1)(1)(2)(2)(4)(4) ×10^9/L
PLT (Drug Induced Cytopenia; [10]): 1465 ± 72.81^(2)(2) ×10^9/L
RBC (Drug Induced Cytopenia; [10]): 8.26 ± 0.63^(1)(1)(2)(2)(3)(3)(5) ×10^12/L
WBC (Drug Induced Cytopenia; [10]): 9.69 ± 0.85^(1)(1)(2)(2)(4)(4) ×10^9/L
RBC (Drug Induced Cytopenia; [11]): 8.18 ± 0.55^(1)(1)(2)(2)(3)(3)(5) ×10^12/L
WBC (Drug Induced Cytopenia; [11]): 9.90 ± 0.64^(1)(1)(2)(2)(4)(4) ×10^9/L
PLT (Drug Induced Cytopenia; 10 days after DNR + Ara-c, 1 day after 3rd dose, TPA 50 μg·kg^−1): 1463 ± 80.33^(2)(2) ×10^9/L
production of WBC, RBC, and platelet (Drug Induced Cytopenia; conclusion of Example 6): promoted the production of WBC, RBC, and platelet
Duration of neutropenia or thrombocytopenia [1]: 12 days
duration of post-chemotherapy neutropenia ([2]; acute myelocytic leukemia (AML) patients): capable of shortening the duration of post-chemotherapy neutropenia
tolerability ([2]; recommended Phase 2 dose 0.125 mg/m^2 daily up to 5 days a week×2 weeks): well tolerated with only minor adverse events
